Data published in patent US20230414611A1, “REFINED USES OF GABA A RECEPTOR MODULATORS IN TREATMENT OF FRAGILE X SYNDROME” (CHILDREN'S HOSPITAL MEDICAL CENTER, priority 2020, published 2023).
Entries after “also recorded” stand apart in the source; their conditions may differ.

What was measured:
[1] = test system: adults with Fragile X Syndrome (FXS); test: ABC-FXS subscales; format: in vivo, human; parameters: scale not given here; settings: undetectable FMRP males (n=5), mean ± SD
Text: Tables 11-16 below summarize alternative […] scoring for the FXS patient treated with AZD7325. ABC-FXS was created for use within this population to take into account FXS-specific symptoms, and has six subscales: Irritability, Social Unresponsiveness/Lethargy, Stereotypy, Hyperactivity, Inappropriate Speech, and Social Avoidance.

[2] = test system: adults with Fragile X Syndrome (FXS); test: Clinical response and adverse effects by peripheral FMRP status; format: in vivo, human
Experimental: This study aims at investigating the safety, tolerability, and blood pharmacodynamics of treatment with oral administration of AZD7325 in adults with Fragile X Syndrome (FXS). This study also investigates measures of efficacy and biomarkers during treatment.
The treatment conditions are provided Table 2 below:
Peripheral levels FMRP proteins in the patients were measured by an immunoassay using an antibody specific to FMRP. A fair percentage of males with FXS show mosaicism or a mix of […] and mutation cells. FIG. 3. Peripheral blood FMRP levels from the study participants are shown in Table 4 below (measured using dried blood spot samples using Luminex® Assay; see Example 3 below). The levels of FMRP measured using dried blood spot as disclosed herein are estimated to be about 7 folds higher than the FMRP levels in the blood of the same patient.

Q: For `CCCNC(=O)c1nnc2c(-c3c(F)cccc3OC)cccc2c1N` [AZD7325, 4-amino-8-(2-fluoro-6-methoxyphenyl)-N-propylcinnoline-3-carboxamide], which “ABC_FXS_Subscale_1 Irritability” value ([1]; high dose, baseline) is on record?
A: 10.2 ± 10.52

Q: What about the “ABC_FXS_Subscale_2 Socially Unresponsive/Lethargic” value ([1]; high dose, baseline) of the same molecule?
A: 1.8 ± 1.92

Q: And the “ABC_FXS_Subscale_3 Stereotypy” value ([1]; high dose, baseline)?
A: 5.0 ± 1.87

Q: And the “ABC_FXS_Subscale_4 Hyperactivity” value ([1]; high dose, baseline)?
A: 6.4 ± 6.80

Q: And the “ABC_FXS_Subscale_5 Inappropriate Speech” value ([1]; high dose, baseline)?
A: 5.6 ± 4.56

Q: And the “ABC_FXS_Subscale_6 Social Avoidance” value ([1]; high dose, baseline)?
A: 1.2 ± 1.79

Q: What about the “ABC_FXS_Subscale_1 Irritability” value ([1]; high dose, chronic) of the same molecule?
A: 9.2 ± 7.05

Q: And the “ABC_FXS_Subscale_2 Socially Unresponsive/Lethargic” value ([1]; high dose, chronic)?
A: 1.0 ± 1.22

Q: What about the “ABC_FXS_Subscale_3 Stereotypy” value ([1]; high dose, chronic) of the same molecule?
A: 3.4 ± 0.55

Q: What about the “ABC_FXS_Subscale_4 Hyperactivity” value ([1]; high dose, chronic) of the same molecule?
A: 4.6 ± 6.31

Q: What about the “ABC_FXS_Subscale_5 Inappropriate Speech” value ([1]; high dose, chronic) of the same molecule?
A: 4.4 ± 3.78

Q: And the “ABC_FXS_Subscale_6 Social Avoidance” value ([1]; high dose, chronic)?
A: 0.6 ± 0.89

Q: What about the “ABC_FXS_Subscale_1 Irritability” value ([1]; low dose, baseline) of the same molecule?
A: 9.8 ± 8.23

Q: And the “ABC_FXS_Subscale_2 Socially Unresponsive/Lethargic” value ([1]; low dose, baseline)?
A: 2.4 ± 1.52

Q: And the “ABC_FXS_Subscale_3 Stereotypy” value ([1]; low dose, baseline)?
A: 3.8 ± 2.28

Q: And the “ABC_FXS_Subscale_4 Hyperactivity” value ([1]; low dose, baseline)?
A: 4.2 ± 3.77

Q: What about the “ABC_FXS_Subscale_5 Inappropriate Speech” value ([1]; low dose, baseline) of the same molecule?
A: 5.4 ± 4.16

Q: And the “ABC_FXS_Subscale_6 Social Avoidance” value ([1]; low dose, baseline)?
A: 2.0 ± 1.87

Q: And the “ABC_FXS_Subscale_1 Irritability” value ([1]; low dose, chronic)?
A: 9.4 ± 9.99

Q: And the “ABC_FXS_Subscale_2 Socially Unresponsive/Lethargic” value ([1]; low dose, chronic)?
A: 2.2 ± 2.39

Q: What about the “ABC_FXS_Subscale_3 Stereotypy” value ([1]; low dose, chronic) of the same molecule?
A: 4.6 ± 3.05

Q: And the “ABC_FXS_Subscale_4 Hyperactivity” value ([1]; low dose, chronic)?
A: 4.4 ± 4.98

Q: What about the “ABC_FXS_Subscale_5 Inappropriate Speech” value ([1]; low dose, chronic) of the same molecule?
A: 4.6 ± 3.29

Q: What about the “ABC_FXS_Subscale_6 Social Avoidance” value ([1]; low dose, chronic) of the same molecule?
A: 2.4 ± 1.82

Q: What about the “low dose (5 mg BID) versus high dose (15 mg BID) in terms of adverse effects and signal (treatment efficacy)” value ([2]; human, in vivo) of the same molecule?
A: superior over high dose

Q: And the responsiveness to treatment ([2]; low dose (5 mg twice per day), patients having undetectable peripheral FMRP)?
A: responsive; also recorded: showed responsiveness

Q: What about the clinical improvement ([2]; low dose, male patients having undetectable peripheral FMRP) of the same molecule?
A: Clinical improvement

Q: What about the responsiveness to treatment ([2]; low dose, patients having detectable peripheral FMRP) of the same molecule?
A: not responsive
